Molecules are shown by their SMILES.

In general, melting point refers to the temperature of the solid-liquid transition. With `O=C1CCc2c(-c3ccncc3)sc(-c3ccccc3F)c21` [Example 53, 3-(2-Fluorophenyl)-1-(4-pyridyl)-5,6-dihydro-4H-cyclopenta(c)thiophene-4-one], the melting point is 133 to 135 °C.
In turn, `O=C1CCc2c(Cl)sc(-c3ccncc3)c21` [Example 54, 1-Chloro-3-(4-pyridyl)-5,6-dihydro-4H-cyclopenta(c)thiophene-4-one] showed a melting point of 163 to 165 °C.
For `CC(=O)c1cc(-c2ccncc2)sc1Oc1ccccc1F` [Example 56, 3-Acetyl-2-(2-fluorophenoxy)-5-(4-pyridyl)thiophene] the value was 93 to 96 °C; for `CC(=O)c1cc(-c2ccncc2)sc1Oc1cc(F)ccc1F` [Example 57, 3-Acetyl-2-(2,5-difluorophenoxy)-5-(4-pyridyl)thiophene], 119 to 121 °C; for `O=C1CCc2c(-c3ccncc3)sc(-c3ccc(F)cc3)c21` [Example 58, 3-(4-Fluorophenyl)-1-(4-pyridyl)-5,6-dihydro-4H-cyclopenta(c)thiophene-4-one], 193 to 195 °C.
On to `NC(=O)c1cc(-c2ccncc2)sc1-c1ccncc1` [Example 59, 2,5-Di(4-pyridyl)-3-thiophenecarboxamide], for which the melting point was 240 to 242 °C.
For `CC(C)OC(=O)c1cc(-c2ccncc2)sc1-c1ccncc1` [Example 60, 3-(Isopropyloxycarbonyl)-2,5-di(4-pyridyl)thiophene] the value was 139 to 142 °C; for `CC(=O)c1cc(-c2ccncc2)sc1Oc1ccc(F)cc1` [Example 62, 3-Acetyl-2-(4-fluorophenoxy)-5-(4-pyridyl)thiophene], 147 to 149 °C.
Under `O=C1CCc2c(-c3ccncc3)sc(-c3cccnc3)c21` [Example 63, 1-(4-Pyridyl)-3-(3-pyridyl)-5,6-dihydro-4H-cyclopenta(c)thiophene-4-one] stands 214 to 216 °C.
For `Cc1c(-c2ccncc2)sc(-c2ccncc2)c1CF` [Example 65, 2,5-Di(4-pyridyl)-3-fluoromethyl-4-methylthiophene] the value was 148 to 148.5 °C.
`O=C1CCc2c(-c3ccncc3)sc(-c3ccc(C(F)(F)F)cc3)c21` [Example 66, 1-(4-Pyridyl)-3-(4-trifluoromethylphenyl)-5,6-dihydro-4H-cyclopenta(c)thiophene-4-one] gave a melting point of 158 to 160 °C.
Under `O=C1CCc2c(-c3ccc(F)cc3)sc(-c3ccncc3)c21` [Example 67, 1-(4-Fluorophenyl)-3-(4-pyridyl)-5,6-dihydro-4H-cyclopenta(c)thiophene-4-one] stands 155 to 157 °C.
For `NC(=O)CCc1cc(-c2ccncc2)sc1-c1ccncc1` [Example 70, 3-[2,5-di-(4-pyridyl)3-thienyl]propionamide] the value was 196 to 196.5 °C.

For the origin of these results see patent US6696470B2, “Pyridylthiophene compounds” (Pfizer Inc., priority 1997, dated 2004).
